The subject of this assay is 8XTBD luciferase reporter (YAP reporter) in HEK293T cells. In words: YAP Reporter Assay. It is filed as cell-based. The conditions noted are these: Homo sapiens, HEK-293T; HEK293T cells stably transfected with 8XTBD luciferase reporter and pRLTK; 24-hr incubation; top concentration 3 μM; read-out: Firefly Luciferase IC50. Put shortly:
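Dual-luciferase read-out after 24 h compound exposure at 37° C, 5% CO2; IC50 and maximum inhibition given separately for 8XTBD-firefly and TK-renilla signals. Stable HEK293T reporter cells, 3×10^3/well, received 10-point 1:3 series starting 3 μM final, in quadruplicate.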
Background: In a reporter assay the amount or activity of a reporter protein is the signal.
As a reminder, the IC50 is the point on the concentration scale where inhibition reaches its midpoint. Take `COc1cc(-c2ccc(C(F)(F)F)cc2)c2ccc(C(=O)N[C@H](C)c3ccccn3)cc2c1` [Compound 293, (R)-7-Methoxy-N-(1-(pyridin-2-yl)ethyl)-5-(4-(trifluoromethyl)phenyl)-2-naphthamide]: the concentration for half-maximal inhibition (IC50) was under 100 nM.
On to `C[C@@H](NC(=O)c1ccc2c(-c3ccc(C(F)(F)F)cc3)cccc2c1)c1nnnn1C` [Compound 281, (R)—N-(1-(1-methyl-1H-tetrazol-5-yl)ethyl)-5-(4-(trifluoromethyl)phenyl)-2-naphthamide], for which the IC50 lay in the range of 100 to 1000 nM.
Regarding `COCC(=O)NCCOCCOCCNC(=O)c1ccc2c(-c3ccc(C(F)(F)F)cc3)cccc2c1` [Compound 76, N-(4-oxo-2,8,11-trioxa-5-azatridecan-13-yl)-5-(4-(trifluoromethyl)phenyl)-2-naphthamide], the IC50 fell in the range of 100 to 1000 nM.
As for `CC(C)NS(=O)(=O)c1ccc2c(-c3ccc(C(F)(F)F)cc3)cccc2c1` [Compound 6, N-isopropyl-5-(4-(trifluoromethyl)phenyl)naphthalene-2-sulfonamide], the IC50 lay in the range of 100 to 1000 nM.
The result for `C[C@@H](NC(=O)c1cnc2c(-c3ccc(C(F)(F)F)cc3)cccc2c1)c1ccccn1` [Compound 101, (R)—N-(1-(pyridin-2-yl)ethyl)-8-(4-(trifluoromethyl)phenyl)quinoline-3-carboxamide] reads 100 to 1000 nM; that for `CC#C[C@H](C)NC(=O)c1ccc2c(-c3ccc(C(F)(F)F)cc3)cccc2c1` [Compound 272, (S)—N-(pent-3-yn-2-yl)-5-(4-(trifluoromethyl)phenyl)-2-naphthamide], under 100 nM; that for `O=C(NCCO)c1ccc2c(-c3ccc(C(F)(F)F)cc3)cccc2c1` [Compound 86, N-(2-hydroxyethyl)-5-(4-(trifluoromethyl)phenyl)-2-naphthamide], under 100 nM.
The result for `C[C@H](NC(=O)c1ccc2c(-c3ccc(C(F)(F)F)cc3)cccc2c1)c1nccn1C` [Compound 253, (S)—N-(1-(1-methyl-1H-imidazol-2-yl)ethyl)-5-(4-(trifluoromethyl)phenyl)-2-naphthamide] reads 1000 to 3000 nM.
`O=C(NCc1ccccn1)c1ccc2c(-c3ccc(C(F)(F)F)cc3)cccc2c1` [Compound 239, N-(pyridin-2-ylmethyl)-5-(4-(trifluoromethyl)phenyl)-2-naphthamide]: the IC50 was under 100 nM.
Take `C[C@@H](NC(=O)c1ccc2c(-c3ccc(C(F)(F)F)cc3)cccc2c1)c1nnn(C)n1` [Compound 279, (R)—N-(1-(2-methyl-2H-tetrazol-5-yl)ethyl)-5-(4-(trifluoromethyl)phenyl)-2-naphthamide]: the IC50 is under 100 nM.
The result for `O=C(O)c1cnc2c(-c3ccc(C(F)(F)F)cc3)cc(OC3CC3)cc2c1` [Compound 323, 6-cyclopropoxy-8-(4-(trifluoromethyl)phenyl)quinoline-3-carboxylic acid] reads under 100 nM; that for `CCN1CC([C@H](C)NC(=O)c2ccc3c(-c4ccc(C(F)(F)F)cc4)cccc3c2)C1` [Compound 149, N-[(1S)-1-(1-Ethylazetidin-3-yl)ethyl]-5-[4-(trifluoromethyl)phenyl]naphthalene-2-carboxamide], 100 to 1000 nM.
Regarding `C[C@@H](NC(=O)c1ccc2c(-c3ccc(C(F)(F)F)cc3)cccc2c1)c1cn(C)cn1` [Compound 196, (R)—N-(1-(1-methyl-1H-imidazol-4-yl)ethyl)-5-(4-(trifluoromethyl)phenyl)-2-naphthamide], the concentration for half-maximal inhibition (IC50) lay within 100 to 1000 nM.
Regarding `C[C@@H](NC(=O)c1cnc2c(-c3ccc(C(F)(F)F)cc3)cccc2c1)C1(O)CNC1` [Compound 141, (R)—N-(1-(3-hydroxyazetidin-3-yl)ethyl)-8-(4-(trifluoromethyl)phenyl)quinoline-3-carboxamide], the IC50 was in the range of 1000 to 3000 nM.
The result for `C[C@@H](NC(=O)c1cnc2c(-c3ccc(C(F)(F)F)cc3)cccc2c1)C1CN(C)C1` [Compound 156, N-[(1R)-1-(1-methylazetidin-3-yl)ethyl]-8-[4-(trifluoromethyl)phenyl]quinoline-3-carboxamide] reads 100 to 1000 nM.
`O=C(NCCCCl)c1ccc2c(-c3ccc(C(F)(F)F)cc3)cccc2c1` [Compound 265, N-(3-chloropropyl)-5-(4-(trifluoromethyl)phenyl)-2-naphthamide]: the half-inhibitory concentration (IC50) was in the range of 100 to 1000 nM.
For the compound `CC(C)NC(=O)c1ccc2c(-c3ccc(C(F)(F)F)cc3)cc(Cl)c(N)c2c1` [Compound 33, 8-amino-7-chloro-N-isopropyl-5-(4-(trifluoromethyl)phenyl)-2-naphthamide], the IC50 is under 100 nM.
On to `COc1cc(-c2ccc(C(F)(F)F)cc2)c2ncc(C(=O)O)cc2c1` [Compound 325, 6-methoxy-8-(4-(trifluoromethyl)phenyl)quinoline-3-carboxylic acid], for which the IC50 is under 100 nM.
For the compound `C[C@@H](CCN)NC(=O)c1ccc2c(-c3ccc(C(F)(F)F)cc3)cccc2c1` [Compound 168, (S)—N-(4-aminobutan-2-yl)-5-(4-(trifluoromethyl)phenyl)-2-naphthamide], the IC50 is under 100 nM.
The result for `O=C(NC(CF)CF)c1ccc2c(-c3ccc(C(F)(F)F)cc3)cccc2c1` [Compound 62, N-(1,3-difluoropropan-2-yl)-5-(4-(trifluoromethyl)phenyl)-2-naphthamide] reads 100 to 1000 nM.
For the compound `COC[C@H](C)NC(=O)c1ccc2c(-c3ccc(C(F)(F)F)cc3)cccc2c1` [Compound 89, (S)—N-(1-methoxypropan-2-yl)-5-(4-(trifluoromethyl)phenyl)-2-naphthamide], the IC50 was under 100 nM.
`COC(=O)c1ccc2c(-c3ccc(C(F)(F)F)cc3)cncc2c1` [Compound 24, Methyl 4-[4-(trifluoromethyl)phenyl]isoquinoline-7-carboxylate]: the IC50 is under 100 nM.
For the compound `CS(=O)(=O)NC(=O)c1cnc2c(-c3ccc(C(F)(F)F)cc3)cc(OC(F)(F)F)cc2c1` [Compound 123, N-(methylsulfonyl)-6-(trifluoromethoxy)-8-(4-(trifluoromethyl)phenyl)quinoline-3-carboxamide], the concentration for half-maximal inhibition (IC50) fell in the range of 1000 to 3000 nM.
Regarding `O=C(O)c1ccc2c(-c3ccc(S(F)(F)(F)(F)F)cc3)cccc2c1` [Compound 329, 5-[4-(pentafluoro-sulfanyl)phenyl]naphthalene-2-carboxylic Acid], the IC50 is under 100 nM.
Turning to `CC(C)NC(=O)c1ccc2c(-c3ccc(C(F)(F)F)cc3)ccc([S+](C)[O-])c2c1` (stereo not shown) [Compound 27, N-isopropyl-8-methylsulfinyl-5-[4-(trifluoromethyl)phenyl]naphthalene-2-carboxamide], the IC50 is 100 to 1000 nM.
In the case of `Cc1cc(-c2ccc(C(F)(F)F)cc2)c2ccc(C(=O)NC(C)C)cc2c1` [Compound 41, N-isopropyl-7-methyl-5-(4-(trifluoromethyl)phenyl)-2-naphthamide], the IC50 is under 100 nM.
Turning to `C[C@@H](NC(=O)c1ccc2c(-c3ccc(C(F)(F)F)cc3)cccc2c1)c1cccc2ccc(=O)[nH]c12` [Compound 177, N-[(1R)-1-(2-oxo-1H-quinolin-8-yl)ethyl]-5-[4-(trifluoromethyl)phenyl]naphthalene-2-carboxamide], the half-inhibitory concentration (IC50) is under 100 nM.
`C[C@H](NC(=O)c1ccc2c(-c3ccc(C(F)(F)F)cc3)cccc2c1)c1cnccn1` [Compound 282, (S)—N-(1-(pyrazin-2-yl)ethyl)-5-(4-(trifluoromethyl)phenyl)-2-naphthamide]: the IC50 lay within 100 to 1000 nM.

These data come from patent US11866431B2, “Bicyclic compounds” (Vivace Therapeutics, Inc., priority 2018, dated 2024).
